Activity and IC50 data for three compounds are collected here from ChEMBL document CHEMBL1150975, “Biochemical and three-dimensional-structural study of the specific inhibition of protein kinase CK2 by [5-oxo-5,6-dihydroindolo-(1,2-a)quinazolin-7-yl]acetic acid (IQA)” (Biochem J, 2003).

In assay [1] the target is T1, MAP kinase-activated protein kinase 5 (Homo sapiens) (UniProt Q8IW41).
T1 sequence (whole entry): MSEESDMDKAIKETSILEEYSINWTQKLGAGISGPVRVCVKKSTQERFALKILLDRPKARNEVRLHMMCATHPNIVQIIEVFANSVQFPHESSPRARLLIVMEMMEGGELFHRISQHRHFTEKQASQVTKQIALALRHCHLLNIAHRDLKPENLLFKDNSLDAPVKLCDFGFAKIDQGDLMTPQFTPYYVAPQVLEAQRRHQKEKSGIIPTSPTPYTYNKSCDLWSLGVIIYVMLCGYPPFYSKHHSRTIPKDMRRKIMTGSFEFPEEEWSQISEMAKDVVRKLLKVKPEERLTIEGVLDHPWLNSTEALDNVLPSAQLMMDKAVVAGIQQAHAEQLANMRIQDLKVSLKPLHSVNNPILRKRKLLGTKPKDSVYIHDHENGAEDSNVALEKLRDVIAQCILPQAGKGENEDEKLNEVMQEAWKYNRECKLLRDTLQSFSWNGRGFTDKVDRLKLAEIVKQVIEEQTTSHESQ
Kind of assay: Percent residual PRAK activity in the presence of 10uM inhibitor.

In assay [2] the target is Insulin-like growth factor 1 receptor (Homo sapiens) (UniProt P08069). Kind of assay: Percent residual IGF-1R activity in the presence of 10uM inhibitor.
In assay [3] the target is Ribosomal protein S6 kinase beta-1 (Homo sapiens) (UniProt P23443). Kind of assay: Percent residual S6K1 activity in the presence of 10uM inhibitor.
Ribosomal protein S6 kinase beta-1 (Homo sapiens), sequence (P23443 whole entry, looked up): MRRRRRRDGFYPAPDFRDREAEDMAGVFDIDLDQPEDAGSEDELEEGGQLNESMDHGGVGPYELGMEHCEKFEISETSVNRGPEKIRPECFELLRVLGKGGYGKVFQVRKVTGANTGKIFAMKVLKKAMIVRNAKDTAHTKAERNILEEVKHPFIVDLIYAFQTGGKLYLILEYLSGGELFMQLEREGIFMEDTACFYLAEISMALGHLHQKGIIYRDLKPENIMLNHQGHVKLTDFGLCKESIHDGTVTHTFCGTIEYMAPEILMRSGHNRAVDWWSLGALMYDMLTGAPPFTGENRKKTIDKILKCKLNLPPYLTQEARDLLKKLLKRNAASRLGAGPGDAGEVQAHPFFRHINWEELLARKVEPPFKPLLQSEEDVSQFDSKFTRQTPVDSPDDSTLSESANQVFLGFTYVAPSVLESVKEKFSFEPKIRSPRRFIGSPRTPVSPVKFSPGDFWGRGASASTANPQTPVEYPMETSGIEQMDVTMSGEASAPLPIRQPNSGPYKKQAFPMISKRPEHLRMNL
In assay [4] the target is Dual specificity tyrosine-phosphorylation-regulated kinase 1A (Homo sapiens, UniProt Q13627). Kind of assay: Percent residual DYRK1a activity in the presence of 10uM inhibitor.
Assay [5] addresses Dual specificity mitogen-activated protein kinase kinase 1 (Homo sapiens) (UniProt Q02750). The assay can be described thus: Percent residual MKK1 activity in presence of 10uM inhibitor.
For assay [6], the target named is RAF proto-oncogene serine/threonine-protein kinase (Homo sapiens) (UniProt P04049). The assay can be described thus: Percent residual c-Raf-1 activity in the presence of 10uM inhibitor.
The target in assay [7] is Ribosomal protein S6 kinase alpha-1 (Homo sapiens) (UniProt Q15418). The assay can be described thus: Percent residual MAPKAPK1 activity in the presence of 10uM inhibitor.
Ribosomal protein S6 kinase alpha-1 (Homo sapiens), sequence (Q15418 whole entry): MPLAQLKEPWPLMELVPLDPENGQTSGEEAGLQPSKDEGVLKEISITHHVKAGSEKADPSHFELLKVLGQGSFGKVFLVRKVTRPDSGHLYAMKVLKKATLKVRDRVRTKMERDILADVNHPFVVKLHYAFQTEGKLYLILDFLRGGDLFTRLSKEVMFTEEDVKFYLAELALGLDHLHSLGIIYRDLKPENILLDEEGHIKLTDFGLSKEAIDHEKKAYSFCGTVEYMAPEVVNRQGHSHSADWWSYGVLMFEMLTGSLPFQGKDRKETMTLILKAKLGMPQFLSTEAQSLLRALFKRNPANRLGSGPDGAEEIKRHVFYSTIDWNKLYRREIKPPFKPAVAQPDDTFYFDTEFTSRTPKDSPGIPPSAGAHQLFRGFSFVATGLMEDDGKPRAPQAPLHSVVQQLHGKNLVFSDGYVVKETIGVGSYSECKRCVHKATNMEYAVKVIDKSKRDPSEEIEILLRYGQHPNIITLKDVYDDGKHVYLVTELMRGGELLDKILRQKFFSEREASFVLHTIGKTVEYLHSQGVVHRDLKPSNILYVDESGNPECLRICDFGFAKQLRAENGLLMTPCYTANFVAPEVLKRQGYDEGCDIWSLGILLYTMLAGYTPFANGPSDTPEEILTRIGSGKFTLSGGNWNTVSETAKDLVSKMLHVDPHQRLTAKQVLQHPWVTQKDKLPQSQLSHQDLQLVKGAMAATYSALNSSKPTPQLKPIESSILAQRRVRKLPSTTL
In assay [8] the target is Proto-oncogene tyrosine-protein kinase Src (Homo sapiens) (UniProt P12931). The assay can be described thus: Percent residual c-Src activity in the presence of 10uM inhibitor.
Assay [9] concerns the target Vascular endothelial growth factor receptor 2 (Homo sapiens) (UniProt P35968). Kind of assay: Percent residual KDR activity in the presence of 10uM inhibitor.
In assay [10] the target is Mitogen-activated protein kinase 14 (Homo sapiens) (UniProt Q16539). Kind of assay: Percent residual p38alpha activity in the presence of 10uM inhibitor.
Mitogen-activated protein kinase 14 (Homo sapiens), sequence (Q16539 whole entry): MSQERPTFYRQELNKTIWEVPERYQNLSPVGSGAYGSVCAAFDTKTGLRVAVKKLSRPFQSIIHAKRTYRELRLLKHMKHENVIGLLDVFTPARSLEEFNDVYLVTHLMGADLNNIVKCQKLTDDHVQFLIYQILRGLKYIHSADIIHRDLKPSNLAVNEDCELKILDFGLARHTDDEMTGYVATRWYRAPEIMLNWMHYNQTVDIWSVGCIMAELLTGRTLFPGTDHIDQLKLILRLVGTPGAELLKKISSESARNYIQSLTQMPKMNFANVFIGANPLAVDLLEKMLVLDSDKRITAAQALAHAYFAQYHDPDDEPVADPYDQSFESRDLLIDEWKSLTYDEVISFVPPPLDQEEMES
For assay [11], the target named is Epidermal growth factor receptor (Homo sapiens) (UniProt P00533). The assay can be described thus: Percent residual Her-1 activity in the presence of 10uM inhibitor.
The target of assay [12] is Fibroblast growth factor receptor 1 (Homo sapiens) (UniProt P11362). Kind of assay: Percent residual FGFR1 activity in the presence of 10uM inhibitor.
Assay [13] addresses Tyrosine-protein kinase Lyn (Homo sapiens) (UniProt P07948). Kind of assay: Percent residual Lyn activity in the presence of 10uM inhibitor.
Assay [14] addresses c-Jun N-terminal kinase, JNK (Homo sapiens) (UniProt P45983+P53779+P45984). Kind of assay: Percent residual JNK activity in the presence of 10uM inhibitor. It counts as protein assay.
Assay [15] concerns the target Mitogen-activated protein kinase kinase kinase kinase 5 (Homo sapiens) (UniProt Q9Y4K4). Kind of assay: Percent residual G-CK activity in the presence of 10uM inhibitor.
Assay [16] in a line: Inhibition of I174A-mutated CK2 holoenzyme. Also noted: species or system Zea mays.
Assay [17] has as its target T2, 3-phosphoinositide-dependent protein kinase 1 (Homo sapiens) (UniProt O15530).
T2 sequence (whole entry): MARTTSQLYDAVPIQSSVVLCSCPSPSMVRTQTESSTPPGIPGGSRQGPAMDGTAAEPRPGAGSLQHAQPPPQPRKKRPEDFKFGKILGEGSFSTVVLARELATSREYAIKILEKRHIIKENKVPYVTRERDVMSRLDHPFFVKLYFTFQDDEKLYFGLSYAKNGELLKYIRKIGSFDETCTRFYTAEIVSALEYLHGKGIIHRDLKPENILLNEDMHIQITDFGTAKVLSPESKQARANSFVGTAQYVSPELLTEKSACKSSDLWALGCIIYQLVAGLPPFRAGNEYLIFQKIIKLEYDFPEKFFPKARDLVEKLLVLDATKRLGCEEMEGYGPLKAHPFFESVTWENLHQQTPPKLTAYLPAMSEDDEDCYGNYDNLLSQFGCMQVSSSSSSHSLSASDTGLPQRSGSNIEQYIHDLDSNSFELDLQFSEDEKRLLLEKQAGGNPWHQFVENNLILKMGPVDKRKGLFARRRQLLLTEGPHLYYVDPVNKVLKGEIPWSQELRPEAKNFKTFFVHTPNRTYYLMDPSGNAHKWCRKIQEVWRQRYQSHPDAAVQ
The assay can be described thus: Percent residual PDK1 activity in the presence of 10uM inhibitor.

In assay [18] the target is Rho-associated protein kinase 2 (Homo sapiens) (UniProt O75116). Kind of assay: Percent residual ROCK-II activity in the presence of 10uM inhibitor.
Rho-associated protein kinase 2 (Homo sapiens), sequence (O75116 whole entry, looked up): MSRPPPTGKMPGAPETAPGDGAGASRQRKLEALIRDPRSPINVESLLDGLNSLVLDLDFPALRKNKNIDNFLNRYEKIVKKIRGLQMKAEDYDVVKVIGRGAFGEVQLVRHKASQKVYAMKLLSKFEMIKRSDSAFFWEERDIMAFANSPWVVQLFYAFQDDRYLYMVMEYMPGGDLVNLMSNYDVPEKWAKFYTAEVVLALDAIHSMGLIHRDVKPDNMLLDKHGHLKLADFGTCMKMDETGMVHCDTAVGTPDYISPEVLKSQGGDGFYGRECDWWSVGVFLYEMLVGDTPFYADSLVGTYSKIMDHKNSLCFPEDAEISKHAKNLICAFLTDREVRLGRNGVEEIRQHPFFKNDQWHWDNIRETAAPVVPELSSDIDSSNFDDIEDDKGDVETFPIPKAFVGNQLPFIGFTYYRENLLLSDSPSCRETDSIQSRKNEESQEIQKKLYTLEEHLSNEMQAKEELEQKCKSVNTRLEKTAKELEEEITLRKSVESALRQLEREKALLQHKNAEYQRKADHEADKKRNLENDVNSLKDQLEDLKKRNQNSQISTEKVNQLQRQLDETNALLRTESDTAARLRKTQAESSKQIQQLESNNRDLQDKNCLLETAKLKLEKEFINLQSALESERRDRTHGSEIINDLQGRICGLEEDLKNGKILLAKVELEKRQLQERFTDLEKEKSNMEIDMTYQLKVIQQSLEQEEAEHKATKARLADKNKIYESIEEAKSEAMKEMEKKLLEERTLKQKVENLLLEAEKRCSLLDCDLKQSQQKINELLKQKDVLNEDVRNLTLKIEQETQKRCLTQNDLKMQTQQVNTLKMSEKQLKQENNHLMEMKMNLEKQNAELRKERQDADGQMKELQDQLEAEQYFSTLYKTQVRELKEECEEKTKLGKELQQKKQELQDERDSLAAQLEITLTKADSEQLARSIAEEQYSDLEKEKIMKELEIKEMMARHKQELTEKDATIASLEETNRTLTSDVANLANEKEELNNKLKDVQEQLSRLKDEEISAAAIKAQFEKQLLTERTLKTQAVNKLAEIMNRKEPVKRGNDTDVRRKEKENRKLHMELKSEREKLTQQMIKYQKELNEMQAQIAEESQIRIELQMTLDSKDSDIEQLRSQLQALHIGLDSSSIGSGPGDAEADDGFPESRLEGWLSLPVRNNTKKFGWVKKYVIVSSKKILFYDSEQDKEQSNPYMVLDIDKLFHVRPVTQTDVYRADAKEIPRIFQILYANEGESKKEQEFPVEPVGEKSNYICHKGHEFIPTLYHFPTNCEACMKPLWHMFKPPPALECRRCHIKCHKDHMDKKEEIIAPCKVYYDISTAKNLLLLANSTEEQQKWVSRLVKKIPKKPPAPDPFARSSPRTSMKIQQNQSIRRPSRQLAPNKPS
The target in assay [19] is Tyrosine-protein kinase ABL1 (Homo sapiens) (UniProt P00519). The assay can be described thus: Percent residual Abl activity in the presence of 10uM inhibitor.
For assay [20], the target named is Receptor-type tyrosine-protein kinase FLT3 (Homo sapiens) (UniProt P36888). The assay can be described thus: Percent residual Flt-3 activity in the presence of 10uM inhibitor.
Assay [21] deals with Insulin receptor (Homo sapiens) (UniProt P06213). The assay can be described thus: Percent residual Ins-R activity in the presence of 10uM inhibitor.
In assay [22] the target is Platelet-derived growth factor receptor beta (Homo sapiens) (UniProt P09619). Kind of assay: Percent residual PDGFRbeta activity in the presence of 10uM inhibitor.
In assay [23] the target is Mast/stem cell growth factor receptor Kit (Homo sapiens) (UniProt P10721). Kind of assay: Percent residual c-Kit activity in the presence of 10uM inhibitor.
Assay [24] deals with Angiopoietin-1 receptor (Homo sapiens) (UniProt Q02763). Kind of assay: Percent residual Tek activity in the presence of 10uM inhibitor.
The target in assay [25] is Glycogen synthase kinase-3 beta (Homo sapiens, UniProt P49841). The assay can be described thus: Percent residual GSK3-beta activity in the presence of 10uM inhibitor.
Assay [26] deals with Tyrosine-protein kinase Lck (Homo sapiens, UniProt P06239). Kind of assay: Inhibition of Lck.
Assay [27] concerns the target Mitogen-activated protein kinase 11 (Homo sapiens) (UniProt Q15759). Kind of assay: Percent residual p38beta activity in the presence of 10uM inhibitor.
A short description of assay [28]: Percent residual Phosphorylase kinase activity in the presence of 10uM inhibitor.
Assay [29] addresses Phosphatidylinositol 4,5-bisphosphate 3-kinase catalytic subunit gamma isoform (Homo sapiens, UniProt P48736). The assay can be described thus: Inhibition of PI3K gamma.
The target in assay [30] is cAMP-dependent protein kinase (PKA) (Homo sapiens, UniProt P22694+P17612+P22612). The assay can be described thus: Inhibition of PKA. In kind it is protein assay.

Mitogen-activated protein kinase kinase kinase kinase 5 (Homo sapiens), sequence (Q9Y4K4 whole entry, looked up): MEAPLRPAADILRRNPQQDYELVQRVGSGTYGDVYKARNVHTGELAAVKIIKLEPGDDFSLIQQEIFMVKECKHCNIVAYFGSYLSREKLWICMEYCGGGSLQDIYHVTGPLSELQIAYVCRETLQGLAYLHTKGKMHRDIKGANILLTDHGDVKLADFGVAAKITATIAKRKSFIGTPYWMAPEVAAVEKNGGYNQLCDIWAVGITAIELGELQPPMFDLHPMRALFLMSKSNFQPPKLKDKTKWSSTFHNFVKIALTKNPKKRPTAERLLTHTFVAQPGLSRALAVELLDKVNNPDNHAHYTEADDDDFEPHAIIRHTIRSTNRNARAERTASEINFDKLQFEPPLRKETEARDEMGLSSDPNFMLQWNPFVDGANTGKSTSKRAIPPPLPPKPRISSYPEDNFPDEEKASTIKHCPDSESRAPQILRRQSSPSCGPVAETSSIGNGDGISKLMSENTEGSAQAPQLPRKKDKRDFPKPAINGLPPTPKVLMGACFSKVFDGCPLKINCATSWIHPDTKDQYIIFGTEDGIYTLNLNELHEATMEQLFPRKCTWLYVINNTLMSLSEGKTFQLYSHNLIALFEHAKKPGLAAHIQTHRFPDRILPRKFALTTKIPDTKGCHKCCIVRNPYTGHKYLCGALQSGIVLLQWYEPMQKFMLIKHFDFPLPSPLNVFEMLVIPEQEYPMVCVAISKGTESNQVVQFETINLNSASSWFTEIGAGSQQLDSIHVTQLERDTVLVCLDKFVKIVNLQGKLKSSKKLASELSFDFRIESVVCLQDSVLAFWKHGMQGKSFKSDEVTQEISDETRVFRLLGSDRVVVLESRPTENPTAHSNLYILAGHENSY
Dual specificity mitogen-activated protein kinase kinase 1 (Homo sapiens), sequence (Q02750 whole entry): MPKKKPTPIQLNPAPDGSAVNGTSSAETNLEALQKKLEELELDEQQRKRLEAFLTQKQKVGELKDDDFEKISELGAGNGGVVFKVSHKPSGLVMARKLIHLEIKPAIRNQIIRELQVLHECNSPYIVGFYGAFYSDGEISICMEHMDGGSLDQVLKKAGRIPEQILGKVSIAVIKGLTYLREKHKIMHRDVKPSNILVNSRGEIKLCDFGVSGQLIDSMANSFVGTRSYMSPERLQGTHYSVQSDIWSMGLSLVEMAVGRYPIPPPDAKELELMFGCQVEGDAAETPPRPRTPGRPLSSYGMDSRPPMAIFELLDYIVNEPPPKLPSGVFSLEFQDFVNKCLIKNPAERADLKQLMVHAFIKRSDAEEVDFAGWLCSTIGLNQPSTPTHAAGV
Tyrosine-protein kinase Lyn (Homo sapiens), sequence (P07948 2-512 limits assumed): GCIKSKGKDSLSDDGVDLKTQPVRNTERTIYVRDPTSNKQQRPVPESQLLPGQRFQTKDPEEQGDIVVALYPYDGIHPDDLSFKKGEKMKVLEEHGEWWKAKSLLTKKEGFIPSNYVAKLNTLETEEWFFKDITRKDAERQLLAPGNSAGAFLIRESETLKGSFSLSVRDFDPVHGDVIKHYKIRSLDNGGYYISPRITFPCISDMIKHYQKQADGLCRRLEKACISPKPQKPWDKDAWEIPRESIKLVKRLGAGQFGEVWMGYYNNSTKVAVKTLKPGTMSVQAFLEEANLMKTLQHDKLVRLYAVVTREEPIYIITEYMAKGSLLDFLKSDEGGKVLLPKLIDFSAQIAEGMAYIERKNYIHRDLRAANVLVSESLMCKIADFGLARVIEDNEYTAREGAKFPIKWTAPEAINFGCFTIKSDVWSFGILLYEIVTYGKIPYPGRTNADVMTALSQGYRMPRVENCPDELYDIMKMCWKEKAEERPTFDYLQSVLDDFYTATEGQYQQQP

The term IC50 denotes the concentration needed to halve the response being measured. High values mean lower potency, low ones higher potency. In the case of `O=C(O)Cc1c2ccccc2n2c1[nH]c(=O)c1ccccc12`, the Activity in [1] was 76%; in assay [2], 80%; in [3], 84%; in assay [4] it was 50%; in [5] it was 85%; in assay [6], 80%. For the same compound, the Activity worked out at 91% in assay [7]; 80% in assay [8]; 80% in [9]; 101% in [10]; 80% in assay [11]; 80% in assay [12]. The Activity in assay [13] turned out to be 93%; in assay [14] it was 100%; in assay [15], 98%; in assay [17] it was 93%; in [18], 94%; in assay [19] it was 80%. Besides, the Activity in assay [20] came to 80%; in assay [21] it was 80%; in [22] it was 80%; in [23] it was 80%; in assay [24] it was 80%; in [25] it was 66%. Also, the figures for the Activity in assay [27] and in [28] were 92% and 79%, respectively. Besides, the IC50 in assay [16] was 11 µM; in [26], 11 µM; in [29] it was > 200 µM; in [30], 16 µM.
Regarding `O=c1cc(-c2ccc(O)cc2)oc2cc(O)cc(O)c12` [APIGENIN], the Activity in [1] was found to be 93%; in assay [3] it was 65%; in [4] it was 20%; in [5], 98%; in [7], 86%; in assay [10] it was 101%. Besides, the Activity is 88% in assay [13]; 92% in [14]; 96% in [15]; 86% in assay [17]; 88% in assay [18]; 54% in assay [25]. The Activity in [27] was 87%; in [28] it was 70%. This compound also yielded an IC50 in [16] of 4.29 µM.
For the compound `Cc1cc(O)c2c(c1)C(=O)c1cc(O)cc(O)c1C2=O` [EMODIN], the Activity was determined as 81% in assay [1]; 84% in assay [3]; 29% in [4]; 111% in [5]; 103% in assay [7]; 92% in [10]. Further, the Activity in assay [13] amounted to 90%; in [14] it was 101%; in assay [15], 89%; in assay [17], 90%; in assay [18], 90%; in assay [25], 68%. The Activity is 101% in assay [27] and 104% in assay [28]. In assay [16], this compound had a concentration for half-maximal inhibition (IC50) of 7.3 µM.
